Data reported in article PMC6563033, “Purification and Characterization of Antioxidant Peptides Derived from Protein Hydrolysate of the Marine Bivalve Mollusk Tergillarca granosa” (Marine Drugs, 2019).
Marks after values point to notes of the source that are not given here. No end group written: not given here.

Assays:
Type in all cases: biochemical
[1] = DPPH radical scavenging activity; conditions: isolated APs; 0.02% ethanolic DPPH; EC50 from linear relation of scavenging rate and concentration; mean ± SD, n = 3
Procedure: (§1) The DPPH radical, hydroxyl radical, superoxide anion radical, and ABTS cation radical scavenging activities were measured according to the previous methods. The results were expressed as a half elimination ratio (EC50) defined as the concentration by which a sample caused a 50% decrease of the initial concentration of DPPH radical, hydroxyl radical, superoxide anion radical, and ABTS cation radical, respectively, and the calculation method of EC50 was according to linear relationship of radical scavenging rates and concentrations of samples [6, 26].
Two millilitres of samples consisting of DW and different concentrations of the analytes were placed in cuvettes, and 500 μL of an ethanolic solution of DPPH (0.02%) and 1.0 mL of ethanol were added. A control sample containing the DPPH solution without the sample was also prepared. In the blank, the DPPH solution was substituted with ethanol. The antioxidant activity of the sample was evaluated using the inhibition percentage of the DPPH radical with the following equation: DPPH radical scavenging activity (%) = (A0 + Ab − A)/A0 × 100% (2) where A is the absorbance rate of the sample, A0 is the control group absorbance, and Ab is the blank absorbance.

[2] = Hydroxyl radical scavenging activity (1,10-phenanthroline/FeSO4/H2O2); conditions: isolated APs; 37 °C, 60 min, absorbance 536 nm; mean ± SD, n = 3
Procedure: as §1
First, 1.0 mL of a 1.87 mM 1,10-phenanthroline solution and 2.0 mL of the sample were added to a screw-capped tube and mixed. Then, 1.0 mL of a FeSO4·7H2O solution (1.87 mM) was added to the mixture. The reaction was initiated by adding 1.0 mL of H2O2 (0.03%, v/v). After being incubated at 37 °C for 60 min in a water bath, the absorbance of the reaction mixture was measured at 536 nm against a reagent blank. […] The hydroxyl radical scavenging activity was calculated using the following formula: Hydroxyl radical scavenging activity (%) = [(As − An)/(Ab − An)] × 100% (3) where As, An, and Ab are the absorbance values determined at 536 nm of the sample, the negative control, and the blank after the reaction, respectively.

[3] = Superoxide anion radical scavenging activity (NBT/NADH/PMS); conditions: isolated APs; 25 °C, 5 min, absorbance 560 nm; mean ± SD, n = 3
Procedure: as §1
The superoxide anions were generated in 1 mL of nitrotetrazolium blue chloride (2.52 mM), 1 mL of nicotinamide adenine dinucleotide hydride (NADH) ([…]) and 1 mL of different sample concentrations. The reaction was initiated by adding 1 ml of phenazine methosulphate solution (120 μM) to the reaction mixture. The absorbance was measured at 560 nm against the corresponding blank after 5 min incubation at 25 °C. The superoxide anion radical scavenging capacity was calculated using the following equation: Superoxide anion radical scavenging activity (%) = [(Acontrol − Asample)/Acontrol] × 100% (4) where Acontrol is the absorbance without sample and Asample is the absorbance with sample.

[4] = ABTS cation radical scavenging activity; conditions: isolated APs; 5 mM PBS pH 7.4, 10 min, absorbance 734 nm; mean ± SD, n = 3
Procedure: as §1
The ABTS radical cation was generated by mixing ABTS stock solution (7 mM) with potassium persulphate (2.45 mM). The mixture was left in the dark at room temperature for 16 h. The ABTS radical solution was diluted in 5 mM PBS pH 7.4, to an absorbance of 0.70 ± 0.02 at 734 nm. One milliliter of diluted ABTS radical solution was mixed with one milliliter of different concentrations of samples. 10 min later, the absorbance was measured at 734 nm against the corresponding blank. The ABTS scavenging activity of samples was calculated using the following equation: ABTS scavenging activity (%) = [(Acontrol − Asample)/Acontrol] × 100% (5) where Acontrol is the absorbance without sample and Asample is the absorbance with sample.

WIDPDG [TGP-2, antioxidant peptide from blood cockle (T. granosa) protein hydrolysate]
Half Elimination Ratio (EC50) DPPH Radical [1]: 1.82 ± 0.16 ^c mg/mL
Half Elimination Ratio (EC50) Hydroxyl Radical [2]: 1.54 ± 0.11 ^b mg/mL
Half Elimination Ratio (EC50) Superoxide Anion Radical [3]: 2.49 ± 0.17 ^b mg/mL
Half Elimination Ratio (EC50) ABTS Cation Radical [4]: 2.56 ± 0.23 ^b mg/mL
